Among the test systems are ACHN renal; CCRF-CEM leukemia; K-562 leukemia; SF-268 CNS; SK-MEL-5 melanoma; SNB-75 CNS; SW-620 colon; U251 CNS.
Experiment in all cases: NCI tumour cell line growth inhibition, 48 h

Each structure is given as a SMILES string.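 In this assay, cells in 96-well plates receive the compound at five concentrations for 48 hours. Endpoints are linearly interpolated between the surrounding concentrations. Here, GI50 denotes the concentration required for 50% inhibition of growth. The concentration for full growth arrest is given as TGI.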 Some results are limits rather than exact numbers.

With `C/C=C(\C)C(=O)O[C@@H]1C=CC(=O)O[C@H]1CNC(=O)[C@H](C)O`, the GI50 in the test with ACHN renal is 15.9 µM; with CCRF-CEM leukemia it was 6.1 µM; in the test on K-562 leukemia, 16.9 µM; with SF-268 CNS, 17 µM; with SK-MEL-5 melanoma, 19.6 µM; in the test with SNB-75 CNS, 24.4 µM. The figures for the GI50 in the test on SW-620 colon and with U251 CNS were 10 µM and 20.5 µM, respectively. Further, the TGI is 31.2 µM in the test with ACHN renal; 26.2 µM with CCRF-CEM leukemia; 64.2 µM in the test with K-562 leukemia; 51.3 µM with SF-268 CNS; 38.8 µM with SK-MEL-5 melanoma; over 74.3 µM in the test with SNB-75 CNS. The figures for the TGI in the test with SW-620 colon and in the test with U251 CNS were 25.4 µM and 54.7 µM, respectively.

As for `CC[Si](CC)(CC)OC1[C@@H](O[Si](CC)(CC)CC)[C@@H](CNC(=O)NC)O[C@H]1n1cnc2c(NC(=O)Nc3ccccc3)ncnc21` (stereo not given in full), the GI50 in the test on ACHN renal is 3.44 µM; in the test on CCRF-CEM leukemia, 3.02 µM; in the test on K-562 leukemia, 3.49 µM; with SF-268 CNS it was 4.67 µM; with SK-MEL-5 melanoma it was 2.01 µM; with SNB-75 CNS, 3.95 µM. Further, the GI50 is 4.1 µM in the test on SW-620 colon and 4.06 µM in the test with U251 CNS. Moreover, the TGI is over 100 µM in the test on ACHN renal; 9.18 µM in the test with CCRF-CEM leukemia; over 100 µM in the test on K-562 leukemia; over 100 µM with SF-268 CNS; 4.02 µM in the test with SK-MEL-5 melanoma; over 100 µM in the test on SNB-75 CNS. For the same compound, the TGI in the test with SW-620 colon and in the test with U251 CNS was over 100 µM each time.

As for `COc1ccc(-c2nnc(Nc3nc(O)c(C4=c5cc(Br)ccc5=NC4=O)s3)o2)cc1`, the TGI is 38.8 µM in the test on ACHN renal; 32.7 µM with CCRF-CEM leukemia; 75.2 µM in the test with K-562 leukemia; over 100 µM in the test with SF-268 CNS; over 59.5 µM in the test with SK-MEL-5 melanoma; 75.2 µM with SNB-75 CNS. Moreover, the results for the TGI in the test on SW-620 colon and in the test with U251 CNS were over 100 µM and 30.7 µM, respectively. The GI50 in the test with CCRF-CEM leukemia was 6.79 µM; with K-562 leukemia, 20.6 µM; with SF-268 CNS, 47.5 µM; in the test on SK-MEL-5 melanoma, 18.3 µM; with SNB-75 CNS, 21.6 µM; in the test on SW-620 colon it was 14.2 µM. For the same compound, the GI50 in the test with U251 CNS was 15.4 µM.

In the case of `CCN(CC)CCCNc1cc(OC)c(OC)c2cccnc12`, the GI50 in the test with ACHN renal is 2.61 µM; in the test on K-562 leukemia it was 5.22 µM; in the test with SF-268 CNS, 14.4 µM; in the test with SK-MEL-5 melanoma, 5.67 µM; in the test with SNB-75 CNS, 3.05 µM; in the test with SW-620 colon, 1.8 µM. The GI50 in the test on U251 CNS was 3.71 µM. In addition, the TGI in the test on ACHN renal is 46.3 µM; in the test on K-562 leukemia, over 100 µM; in the test with SF-268 CNS it was 46.3 µM; in the test with SK-MEL-5 melanoma, 19.9 µM; in the test with SNB-75 CNS it was 14.8 µM; in the test on SW-620 colon, 20.2 µM. Further, the TGI in the test on U251 CNS is 21 µM.

On to `CCOC(=O)CCSC1=CC(=O)c2nc3ccccc3c3ccnc1c23`, for which the GI50 with ACHN renal was 18.6 µM; in the test with CCRF-CEM leukemia, 3.44 µM; with K-562 leukemia, 26.9 µM; in the test with SF-268 CNS, 17.1 µM; with SK-MEL-5 melanoma, 13.4 µM; with SNB-75 CNS, 39 µM. The GI50 was 13.9 µM with SW-620 colon and 29.8 µM with U251 CNS. Further, the TGI is 42.5 µM with ACHN renal; over 100 µM in the test with CCRF-CEM leukemia; over 100 µM in the test on K-562 leukemia; 39.4 µM in the test with SF-268 CNS; 30.4 µM in the test on SK-MEL-5 melanoma; over 100 µM in the test with SNB-75 CNS. Also, the TGI in the test on SW-620 colon was 41.6 µM; with U251 CNS it was over 100 µM.

For `NCCCNc1nc2ccccc2c2c(=O)c3cc(F)cc(Cl)c3sc12`, the GI50 is 1.7 µM in the test on ACHN renal; 1.95 µM in the test with CCRF-CEM leukemia; 1.78 µM in the test with K-562 leukemia; 1.61 µM in the test with SF-268 CNS; 6.5 µM with SK-MEL-5 melanoma; 1.54 µM in the test with SNB-75 CNS. The GI50 with SW-620 colon was 1.7 µM; in the test with U251 CNS, 1.72 µM. Further, the TGI in the test with ACHN renal is 3.07 µM; in the test with CCRF-CEM leukemia, 4.58 µM; in the test with K-562 leukemia, 4.1 µM; in the test with SF-268 CNS, 3.29 µM; with SK-MEL-5 melanoma it was 20.3 µM; in the test with SNB-75 CNS it was 2.96 µM. Moreover, the TGI is 3.28 µM in the test with SW-620 colon and 3.37 µM in the test on U251 CNS.

For `Cc1ccc(/C(=C/C=C(C#N)C#N)Sc2nc3ccccc3s2)cc1`, the GI50 in the test on CCRF-CEM leukemia was 0.465 µM; in the test with K-562 leukemia it was 6.25 µM; with SF-268 CNS it was 5.81 µM; in the test with SK-MEL-5 melanoma, 13.3 µM; in the test on SW-620 colon, 2.42 µM. Moreover, the TGI in the test with CCRF-CEM leukemia was 3.02 µM; in the test on K-562 leukemia, over 100 µM; in the test on SF-268 CNS, 22.1 µM; in the test with SK-MEL-5 melanoma it was 26.6 µM; in the test with SW-620 colon, 5.73 µM.

As for `COc1ccc(NC(=O)c2cccc(C3CCc4c(cc(OC)c(OC)c4OC)O3)c2)cc1` (stereo not given), the GI50 in the test on ACHN renal was 4.28 µM; in the test on CCRF-CEM leukemia it was 1.6 µM; in the test with K-562 leukemia it was 0.654 µM; with SF-268 CNS it was 5.13 µM; in the test with SK-MEL-5 melanoma, 1.67 µM; in the test with SW-620 colon it was 4.45 µM. Besides, the GI50 with U251 CNS was 3.4 µM. In addition, the TGI with ACHN renal is over 100 µM; with CCRF-CEM leukemia, over 100 µM; in the test on K-562 leukemia, over 100 µM; with SF-268 CNS, over 100 µM; with SK-MEL-5 melanoma, 3.89 µM; in the test on SW-620 colon it was over 100 µM. Besides, the TGI in the test with U251 CNS is over 100 µM.

Consider `CC(=O)O[C@H]1CC[C@]2(C)C3C(=O)C[C@]4(C)[C@@H](C(C)CCC(=O)O)CC[C@@]4(C)[C@@H]3CC[C@H]2C1(C)C` (stereo not given in full), for which the GI50 in the test with ACHN renal is 10.7 µM; with K-562 leukemia, 14.9 µM; with SF-268 CNS, 21.1 µM; in the test on SK-MEL-5 melanoma, 8.53 µM; in the test on SNB-75 CNS it was 42.7 µM; in the test on SW-620 colon, 19.4 µM. The GI50 in the test with U251 CNS was 7 µM. The TGI in the test with ACHN renal is 35.4 µM; in the test on K-562 leukemia, over 50 µM; in the test on SF-268 CNS, over 50 µM; in the test with SK-MEL-5 melanoma, 17.5 µM; in the test with SNB-75 CNS, over 50 µM; in the test on SW-620 colon, over 50 µM. The compound further yielded a TGI in the test on U251 CNS of 20 µM.

As to `O=C(c1ccc(Nc2nccc(NCCCCNc3ccnc4cc(Cl)ccc34)n2)cc1)N1CCCCC1`, the GI50 is 3.32 µM in the test on ACHN renal; 1.48 µM with CCRF-CEM leukemia; 2.36 µM with SF-268 CNS; 1.61 µM in the test with SK-MEL-5 melanoma; 1.58 µM with SNB-75 CNS; 0.589 µM in the test with SW-620 colon. Further, the GI50 with U251 CNS was 1.53 µM. Besides, the TGI in the test with ACHN renal is 11.3 µM; in the test on CCRF-CEM leukemia, over 100 µM; with SF-268 CNS, 8.31 µM; in the test on SK-MEL-5 melanoma, 2.98 µM; with SNB-75 CNS, 3.35 µM; in the test with SW-620 colon, 2.17 µM. This compound also gave a TGI in the test on U251 CNS of 3.38 µM.

These data come from PubChem BioAssay (NCI).
